Our source for the Ki values is patent US8815882B2, “Pyrazole aminopyrimidine derivatives as LRRK2 modulators” (Genentech, Inc., priority 2010, dated 2014).

T1 sequence (Q5S007 whole entry G2019S): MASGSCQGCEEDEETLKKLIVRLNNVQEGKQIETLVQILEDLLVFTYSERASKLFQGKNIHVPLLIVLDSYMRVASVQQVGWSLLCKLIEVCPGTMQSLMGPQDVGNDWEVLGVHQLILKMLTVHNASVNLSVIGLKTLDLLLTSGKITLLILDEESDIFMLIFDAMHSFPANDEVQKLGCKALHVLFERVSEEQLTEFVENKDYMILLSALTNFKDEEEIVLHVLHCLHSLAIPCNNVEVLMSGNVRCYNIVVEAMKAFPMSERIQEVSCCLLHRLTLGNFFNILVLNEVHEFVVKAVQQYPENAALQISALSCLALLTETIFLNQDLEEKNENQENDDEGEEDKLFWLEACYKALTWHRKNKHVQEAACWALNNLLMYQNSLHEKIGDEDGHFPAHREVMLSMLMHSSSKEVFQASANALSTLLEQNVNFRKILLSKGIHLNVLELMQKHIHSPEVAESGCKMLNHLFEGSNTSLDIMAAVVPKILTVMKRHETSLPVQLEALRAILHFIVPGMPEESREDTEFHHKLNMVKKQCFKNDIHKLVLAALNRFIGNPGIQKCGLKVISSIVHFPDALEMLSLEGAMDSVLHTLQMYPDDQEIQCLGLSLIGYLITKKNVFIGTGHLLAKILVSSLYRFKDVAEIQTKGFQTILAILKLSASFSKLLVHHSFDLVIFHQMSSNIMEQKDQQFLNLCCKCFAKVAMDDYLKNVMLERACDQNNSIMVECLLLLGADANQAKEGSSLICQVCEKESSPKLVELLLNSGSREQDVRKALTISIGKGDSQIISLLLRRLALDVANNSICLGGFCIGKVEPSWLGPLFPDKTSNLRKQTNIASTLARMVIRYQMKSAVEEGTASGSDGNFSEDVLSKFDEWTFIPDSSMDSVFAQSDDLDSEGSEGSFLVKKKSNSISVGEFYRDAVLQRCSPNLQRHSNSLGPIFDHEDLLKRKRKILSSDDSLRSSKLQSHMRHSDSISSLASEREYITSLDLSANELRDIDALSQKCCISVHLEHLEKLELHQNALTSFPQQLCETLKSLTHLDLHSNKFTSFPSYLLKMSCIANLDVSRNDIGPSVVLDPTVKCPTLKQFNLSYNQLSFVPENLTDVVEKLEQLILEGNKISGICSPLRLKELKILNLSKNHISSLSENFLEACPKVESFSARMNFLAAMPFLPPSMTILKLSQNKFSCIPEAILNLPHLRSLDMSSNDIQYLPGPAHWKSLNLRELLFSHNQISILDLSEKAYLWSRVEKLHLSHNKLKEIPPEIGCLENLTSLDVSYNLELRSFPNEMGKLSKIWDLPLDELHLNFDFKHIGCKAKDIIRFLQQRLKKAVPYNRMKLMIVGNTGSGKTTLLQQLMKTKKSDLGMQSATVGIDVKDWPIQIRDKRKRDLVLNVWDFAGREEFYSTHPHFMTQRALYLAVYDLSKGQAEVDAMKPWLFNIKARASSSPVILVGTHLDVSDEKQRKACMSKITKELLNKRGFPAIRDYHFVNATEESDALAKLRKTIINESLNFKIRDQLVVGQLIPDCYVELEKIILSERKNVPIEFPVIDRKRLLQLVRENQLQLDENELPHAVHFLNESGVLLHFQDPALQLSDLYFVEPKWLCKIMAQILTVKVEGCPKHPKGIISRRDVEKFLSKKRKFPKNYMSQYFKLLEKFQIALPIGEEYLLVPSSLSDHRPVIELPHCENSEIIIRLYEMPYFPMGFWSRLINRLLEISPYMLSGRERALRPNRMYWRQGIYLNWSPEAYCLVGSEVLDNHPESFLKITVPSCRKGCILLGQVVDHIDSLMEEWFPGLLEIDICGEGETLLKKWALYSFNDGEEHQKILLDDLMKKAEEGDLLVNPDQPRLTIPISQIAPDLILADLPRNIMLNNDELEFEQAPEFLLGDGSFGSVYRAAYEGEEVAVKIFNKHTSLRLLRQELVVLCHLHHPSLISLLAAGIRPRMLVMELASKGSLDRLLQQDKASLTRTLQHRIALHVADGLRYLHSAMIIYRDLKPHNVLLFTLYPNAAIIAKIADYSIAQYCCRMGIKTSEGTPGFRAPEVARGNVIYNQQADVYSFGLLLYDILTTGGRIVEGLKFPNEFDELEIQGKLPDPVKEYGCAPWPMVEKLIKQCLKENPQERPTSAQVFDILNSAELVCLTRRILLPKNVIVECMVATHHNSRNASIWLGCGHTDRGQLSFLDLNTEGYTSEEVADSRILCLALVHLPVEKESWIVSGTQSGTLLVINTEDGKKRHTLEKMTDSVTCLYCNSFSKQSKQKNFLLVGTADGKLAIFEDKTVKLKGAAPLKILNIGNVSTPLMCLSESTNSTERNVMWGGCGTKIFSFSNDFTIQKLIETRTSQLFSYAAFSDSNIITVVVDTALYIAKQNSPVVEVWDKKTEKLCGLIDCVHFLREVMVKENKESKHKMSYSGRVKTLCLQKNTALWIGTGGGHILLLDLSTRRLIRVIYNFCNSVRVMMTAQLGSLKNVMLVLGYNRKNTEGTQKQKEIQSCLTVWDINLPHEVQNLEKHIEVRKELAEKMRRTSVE

One assay has as its target T1, LRRK2 (Homo sapiens, UniProt Q5S007, G2019S).
T1 construct: purchased Invitrogen PV4882 (lot 567054A)
Put plainly: In Vitro LRRK2 Assay (LabChip 3000, fluorescently-labeled peptide substrate, ATP). Type of assay: biochemical. As to conditions: Table 9; LRRK2 Ki (micromolar); read-out: LRRK2 Ki (KI). The gist of the method: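 LRRK2, fluorescent peptide substrate (diluted to 4 μM before mixing), ATP and compound were incubated 2 h in the dark, then stopped. Phosphorylated and unphosphorylated peptide were separated by capillary electrophoresis and quantified by fluorescence. Ki was fitted with a tight-binding equation including enzyme concentration, S and Km; IC50 or percent inhibition were also reported.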
In the case of `CNc1nc(Nc2cn(CC(F)(F)F)nc2C)ncc1C#N` [Example 359, 2-(3-methyl-1-(2,2,2-trifluoroethyl)-1H-pyrazol-4-ylamino)-4-(methylamino) pyrimidine-5-carbonitrile], the Ki – broadly, the dissociation constant of the complex between target and ligand, obtained from inhibition or displacement – was 0.053 µM. The same measure, in the same setting: with `CNc1nc(Nc2cn(C(C)C)nc2C)ncc1C#N` [Example 352, 2-(1-isopropyl-3-methyl-1H-pyrazol-4-ylamino)-4-(methylamino) pyrimidine-5-carbonitrile] the figure was 0.048 µM. On to `CCNc1nc(Nc2cnn(CC)c2C)ncc1C#N` [Example 363, 2-(1-ethyl-5-methyl-1H-pyrazol-4-ylamino)-4-(ethylamino) pyrimidine-5-carbonitrile], for which the Ki was found to be 0.006 µM. Still for that read-out and setting: next, `CNc1nc(Nc2cn(C3COC3)nc2C)ncc1C#N` [Example 389, 4-Methylamino-2-(3-methyl-1-oxetan-3-yl-1H-pyrazol-4-ylamino)-pyrimidine-5-carbonitrile]: 0.0372 µM; `CCNc1nc(Nc2cn(C3CCOCC3)nc2C)ncc1C#N` [Example 372, 4-(ethylamino)-2-(3-methyl-1-(tetrahydro-2H-pyran-4-yl)-1H-pyrazol-4-ylamino) pyrimidine-5-carbonitrile]: 0.024 µM.

Staying with this assay, now noted: Table 10; LRRK2 Ki (micromolar); read-out: LRRK2 Ki (KI).
Regarding `CNc1nc(Nc2cnn(C(C)(C)C(=O)NCC(F)(F)F)c2C)ncc1C(F)(F)F` [Example 443, 2-[5-Methyl-4-(4-methylamino-5-trifluoromethyl-pyrimidin-2-ylamino)-pyrazol-1-yl]-N-(2,2,2-trifluoro-ethyl)-isobutyramide], the inhibition constant (Ki) turned out to be 0.0666 µM.

Take `CNC(=O)Cn1cc(Nc2ncc(C(F)(F)F)c(NC)n2)c(C)n1` [Example 397, N-methyl-2-(3-methyl-4-(4-(methylamino)-5-(trifluoromethyl)pyrimidin-2-ylamino)-1H-pyrazol-1-yl)acetamide]: the Ki was 0.0095 µM. On to `CNc1nc(Nc2cn(C(C)(C)C(=O)NC(C)(C)C)nc2C)ncc1C(F)(F)F` [Example 423, N-tert-butyl-2-methyl-2-(3-methyl-4-(4-(methylamino)-5-(trifluoromethyl)pyrimidin-2-ylamino)-1H-pyrazol-1-yl)propanamide], for which the Ki worked out at 0.073 µM. Still for that read-out and setting: with `COC(=O)C(C)(C)n1ncc(Nc2ncc(Cl)c(OC)n2)c1C` [Example 434, 2-[4-(5-Chloro-4-methoxy-pyrimidin-2-ylamino)-5-methyl-pyrazol-1-yl]-2-methyl-propionic acid methyl ester] the figure was 0.0122 µM.

Still in this assay, the particulars now being: read-out: LRRK2 Ki (KI), Table 7.
Take `COc1nc(Nc2cn(C3CCN(C(=O)C4(C)CC4)CC3)nc2C)ncc1Cl` [Example 66, (4-(4-(5-chloro-4-methoxy-pyrimidin-2-ylamino)-3-methyl-1H-pyrazol-1-yl)piperidin-1-yl)(1-methylcyclo-propyl) methanone]: the Ki was found to be 0.066 µM. Same read-out and setting: with `COc1nc(Nc2cnn(C)c2Cl)ncc1Cl` [Example 21, 5-Chloro-N-(5-chloro-1-methyl-1H-pyrazol-4-yl)-4-methoxy-pyrimidin-2-amine] the figure was 0.02 µM; with `COc1nc(Nc2cnn(-c3ccc(C(=O)N(C)C)cc3)c2C)ncc1Cl` [Example 82, 4-[4-(5-Chloro-4-methoxy-pyrimidin-2-ylamino)-5-methyl-pyrazol-1-yl]-N,N-dimethyl-benzamide], 0.63 µM. In the case of `COc1nc(Nc2cn(C3COC3)nc2C)ncc1Cl` [Example 18, 5-Chloro-4-methoxy-N-(3-methyl-1-(oxetan-3-yl)-1H-pyrazol-4-yl)pyrimidin-2-amine], the inhibition constant (Ki) is 0.022 µM. Still for that read-out and setting: next, `CNc1nc(Nc2cc(C(C)C)nn2C)ncc1C(F)(F)F` [Example 38, N^2-(3-isopropyl-1-methyl-1H-pyrazol-5-yl)-N^4-methyl-5-(trifluoromethyl) pyrimidine-2,4-diamine]: 0.012 µM. Still for that read-out and setting: with `CC(C)n1cc(Nc2ncc(Cl)c(OC3CCOCC3)n2)cn1` [Example 11, 5-Chloro-N-(1-isopropyl-1H-pyrazol-4-yl)-4-(tetrahydro-2H-pyran-4-yloxy)pyrimidin-2-amine] the figure was 0.033 µM; with `CNc1nc(Nc2c(C)nn(C)c2C)ncc1C(F)(F)F` [Example 10, N^4-methyl-5-(trifluoromethyl)-N^2-(1,3,5-trimethyl-1H-pyrazol-4-yl)pyrimidinc-2,4-diamine], 0.096 µM.

The assay is the same for the next values; noted with them: read-out: LRRK2 Ki (KI), Table 8.
With `CNc1nc(Nc2cnn(CC3CC3)c2Cl)ncc1C(F)(F)F` [Example 146, N2-(5-chloro-1-(cyclopropyl-methyl)-1H-pyrazol-4-yl)-N4-methyl-5-(trifluoromethyl) pyrimidine-2,4-diamine], the Ki was 0.0003 µM. Still for that read-out and setting: next, `CNc1nc(Nc2cn(-c3cc(F)cc(F)c3)nc2C)ncc1Br` [Example 116, 5-bromo-N2-(1-(3,5-difluorophenyl)-3-methyl-1H-pyrazol-4-yl)-N4-methylpyrimidine-2,4-diamine]: 0.0003 µM. For the compound `CCNc1nc(Nc2cn(C3CCN(C4COC4)CC3F)nc2C)ncc1C(F)(F)F` (centres unmarked) [Example 319, N4-Ethyl-N2-[1-(3-fluoro-1-oxetan-3-yl-piperidin-4-yl)-3-methyl-1H-pyrazol-4-yl]-5-trifluoromethyl-pyrimidine-2,4-diamine], the inhibition constant (Ki) was determined as 0.0003 µM. The same measure, in the same setting: next, `CNc1nc(Nc2cnn(-c3ccc(Cl)cc3)c2C)ncc1C(F)(F)F` [Example 123, N2-(1-(4-chlorophenyl)-5-methyl-1H-pyrazol-4-yl)-N4-methyl-5-(trifluoromethyl) pyrimidine-2,4-diamine]: 0.0003 µM; `CNc1nc(Nc2cnn(C)c2C2CC2)ncc1C(F)(F)F` [Example 178, N2-(5-cyclopropyl-1-methyl-1H-pyrazol-4-yl)-N4-methyl-5-(trifluoromethyl) pyrimidine-2,4-diamine]: 0.012 µM; `CNc1nc(Nc2cn(C(C)(C)c3nnc[nH]3)nc2C)ncc1C(F)(F)F` [Example 332, N4-Methyl-N2-{3-methyl-1-[1-methyl-1-(4H-[1,2,4]triazol-3-yl)-ethyl]-1H-pyrazol-4-yl}-5-trifluoromethyl-pyrimidine-2,4-diamine]: 0.0023 µM. Turning to `CCNc1nc(Nc2cnn(C3CCN(C)CC3)c2C)ncc1C(F)(F)F` [Example 207, N4-ethyl-N2-(5-methyl-1-(1-methylpiperidin-4-yl)-1H-pyrazol-4-yl)-5-(trifluoromethyl) pyrimidine-2,4-diamine], the Ki worked out at 0.0026 µM. Same read-out and setting: with `CNc1nc(Nc2cn(C)nc2C2CCC2)ncc1C(F)(F)F` [Example 228, N2-(3-cyclobutyl-1-methyl-1H-pyrazol-4-yl)-N4-methyl-5-(trifluoromethyl) pyrimidine-2,4-diamine] the figure was 0.0034 µM; with `CNc1nc(Nc2cn(C3CCCC3O)nc2C)ncc1C(F)(F)F` (centres unmarked) [Example 335, 2-[3-Methyl-4-(4-methylamino-5-trifluoromethyl-pyrimidin-2-ylamino)-pyrazol-1-yl]-cyclopentanol], 0.0033 µM. Consider `CNc1nc(Nc2cnn(C3CCN(CCF)CC3)c2C)ncc1C(F)(F)F` [Example 284, N2-{1-[1-(2-Fluoro-ethyl)-piperidin-4-yl]-5-methyl-1H-pyrazol-4-yl}-N4-methyl-5-trifluoromethyl-pyrimidine-2,4-diamine], for which the inhibition constant (Ki) is 0.0042 µM. With `CCNc1nc(Nc2cn(CC3(C)COC3)nc2C)ncc1C(F)(F)F` [Example 144, N4-ethyl-N2-(3-methyl-1-((3-methyloxetan-3-yl)methyl)-1H-pyrazol-4-yl)-5-(trifluoromethyl) pyrimidine-2,4-diamine], the inhibition constant Ki stood at 0.0009 µM.

`CNc1nc(Nc2cnn(S(C)(=O)=O)c2C)ncc1C(F)(F)F` [Example 195, N4-methyl-N2-(5-methyl-1-(methylsulfonyl)-1H-pyrazol-4-yl)-5-(trifluoromethyl) pyrimidine-2,4-diamine]: the Ki worked out at 0.01 µM. Same read-out and setting: with `CCNc1nc(Nc2cn(C3CCOCC3)nc2C)ncc1C(F)(F)F` [Example 159, N4-ethyl-N2-(3-methyl-1-(tetrahydro-2H-pyran-4-yl)-1H-pyrazol-4-yl)-5-(trifluoromethyl) pyrimidine-2,4-diamine] the figure was 0.0039 µM.

In the case of `CNc1nc(Nc2cnn(-c3ccc(C#N)cc3)c2C)ncc1C(F)(F)F` [Example 147, 4-(5-methyl-4-(4-(methylamino)-5-(trifluoromethyl)pyrimidin-2-ylamino)-1H-pyrazol-1-yl)benzonitrile], the inhibition constant (Ki) was found to be 0.017 µM. The same measure, in the same setting: next, `CCNc1nc(Nc2cn(S(=O)(=O)C3CC3)nc2C)ncc1C(F)(F)F` [Example 171, N2-(1-(cyclopropyl-sulfonyl)-3-methyl-1H-pyrazol-4-yl)-N4-ethyl-5-(trifluoromethyl) pyrimidine-2,4-diamine]: 0.0009 µM; `CCNc1nc(Nc2cnn([C@H]3CCCN(C)C3)c2C)ncc1C(F)(F)F` [Example 311, N4-Ethyl-N2-[5-methyl-1-((S)-1-methyl-piperidin-3-yl)-1H-pyrazol-4-yl]-5-trifluoromethyl-pyrimidine-2,4-diamine]: 0.0012 µM; `COc1nc(Nc2cnn(C3CCN(CCF)CC3)c2C)ncc1Cl` [Example 292, (5-Chloro-4-methoxy-pyrimidin-2-yl)-{1-[1-(2-fluoro-ethyl)-piperidin-4-yl]-5-methyl-1H-pyrazol-4-yl}-amine]: 0.0042 µM. For `CCNc1nc(Nc2cnn(C3CCN(C(=O)C(C)C)CC3)c2C)ncc1C(F)(F)F` [Example 181, l-(4-(4-(4-(ethylamino)-5-(trifluoromethyl)pyrimidin-2-ylamino)-5-methyl-1H-pyrazol-1-yl)piperidin-1-yl)-2-methylpropan-1-one], the Ki is 0.00082 µM.

Staying with this assay, now noted: read-out: LRRK2 Ki given in the example.
As for `CNc1nc(Nc2cc(C(=O)N3CCOCC3)nn2C)ncc1Cl` [Example 393, (5-(5-chloro-4-(methylamino)pyrimidin-2-ylamino)-1-methyl-1H-pyrazol-3-yl)(morpholino)methanone], the Ki stood at 0.16 µM.
